Laboratory results as given in paper PMC10631261 (Chemical Science, 2023).
Read-outs that look alike come from different tables or passages of the source.

Legend:
FIH = molecular target: T1, FIH (Homo sapiens, UniProt Q9NWT6); assay: SPE-MS FIH inhibition assay; type: biochemical
T1 construct: made in house
Experimental: (§1) Protein production and purification
(§2) PAGE analysis) according to established procedures.
(§3) FIH, PHD2, AspH, JMJD5 and KDM4A inhibition assays
(§4) The in vitro FIH,1, 2 PHD2,1 AspH,38 JMJD536 and KDM4A39 inhibition assays were performed as […]
(§5) KDM4A). Synthetic peptide substrates were used: HIF-1α C-terminal transactivation domain fragment […]
(§6) H3Lys9 bearing three methyl groups at the N ϵ position, H3Lys4 substituted by an Ala and H3Lys14 substituted by an Ile residue) for KDM4A.39 Peptides were prepared as C-terminal amides by GL Biochem (Shanghai) Ltd. Peptide hydroxylation in the case of FIH, PHD2, AspH and JMJD5 (+16 Da mass shift) or peptide demethylation in the case of KDM4A ( -14 Da mass shift) was monitored by SPE-MS. […]

PHD2 = PHD2 (Homo sapiens, UniProt Q9GZT9); assay: biochemical
Experimental: (§7) 3. Biochemical procedures
as §1, §2, §3, §4, §5, §6

AspH = AspH (Homo sapiens, UniProt Q12797); assay: biochemical
Description: (§8) To investigate the potential of BNS for selective FIH inhibition, its selectivity was investigated with respect to other 2OG-dependent protein oxidising enzymes, that is PHD2, Jumonji-C domain-containing protein 5 (JMJD5), aspartate/asparagine-β-hydroxylase (AspH) and KDM4A, using reported SPE-MS inhibition assays.[58,61,69,70] In addition to PHD2 and KDM4A, we included AspH and JMJD5 in our selectivity studies, because AspH, like FIH, catalyses protein aspartate- and asparagine-residue hydroxylation (although in epidermal growth factor-like domains),[71,72] and because JMJD5 is structurally closely related to FIH.[73,74]
as §7, §1, §2, §3, §4, §5, §6

JMJD5 = JMJD5 (Homo sapiens, UniProt Q8N371); assay: biochemical
Description: as §8, §7, §1, §2, §3, §4, §5, §6

KDM4A = KDM4A (Homo sapiens, UniProt O75164); assay: biochemical; type: biochemical
Description: as §8, §7, §1, §2, §3, §4, §5, §6

[1] = IC50 comparison with compound 20

AspH, sequence (Q12797 315-758): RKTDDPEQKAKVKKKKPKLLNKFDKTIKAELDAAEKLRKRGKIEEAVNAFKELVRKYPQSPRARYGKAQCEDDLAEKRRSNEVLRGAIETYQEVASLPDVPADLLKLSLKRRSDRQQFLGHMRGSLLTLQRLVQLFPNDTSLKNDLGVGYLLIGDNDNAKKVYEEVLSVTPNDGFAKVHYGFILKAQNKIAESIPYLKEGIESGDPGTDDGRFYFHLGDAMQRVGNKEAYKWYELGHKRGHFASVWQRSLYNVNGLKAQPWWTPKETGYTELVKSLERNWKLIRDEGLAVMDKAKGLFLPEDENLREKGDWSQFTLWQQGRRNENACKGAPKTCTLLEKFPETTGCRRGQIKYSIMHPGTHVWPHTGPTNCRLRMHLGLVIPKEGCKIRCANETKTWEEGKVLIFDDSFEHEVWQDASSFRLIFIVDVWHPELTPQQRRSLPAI
KDM4A, sequence (O75164 1-359): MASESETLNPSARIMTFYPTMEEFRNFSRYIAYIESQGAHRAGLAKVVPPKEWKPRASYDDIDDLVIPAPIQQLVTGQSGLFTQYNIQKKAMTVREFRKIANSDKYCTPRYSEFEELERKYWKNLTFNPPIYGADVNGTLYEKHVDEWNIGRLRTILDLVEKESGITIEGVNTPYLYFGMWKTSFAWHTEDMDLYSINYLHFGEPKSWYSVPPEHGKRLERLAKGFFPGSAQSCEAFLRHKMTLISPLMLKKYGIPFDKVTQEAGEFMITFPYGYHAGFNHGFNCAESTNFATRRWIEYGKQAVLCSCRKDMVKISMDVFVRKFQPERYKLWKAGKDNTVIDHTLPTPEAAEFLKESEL
PHD2, sequence (Q9GZT9 181-426): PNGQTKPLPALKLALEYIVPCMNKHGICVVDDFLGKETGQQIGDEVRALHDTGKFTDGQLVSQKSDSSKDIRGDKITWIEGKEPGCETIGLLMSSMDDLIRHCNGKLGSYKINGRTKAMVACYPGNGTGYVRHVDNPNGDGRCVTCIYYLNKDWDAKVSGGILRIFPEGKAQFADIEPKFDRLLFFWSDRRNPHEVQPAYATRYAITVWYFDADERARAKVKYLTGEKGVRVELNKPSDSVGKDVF
JMJD5, sequence (Q8N371 whole entry): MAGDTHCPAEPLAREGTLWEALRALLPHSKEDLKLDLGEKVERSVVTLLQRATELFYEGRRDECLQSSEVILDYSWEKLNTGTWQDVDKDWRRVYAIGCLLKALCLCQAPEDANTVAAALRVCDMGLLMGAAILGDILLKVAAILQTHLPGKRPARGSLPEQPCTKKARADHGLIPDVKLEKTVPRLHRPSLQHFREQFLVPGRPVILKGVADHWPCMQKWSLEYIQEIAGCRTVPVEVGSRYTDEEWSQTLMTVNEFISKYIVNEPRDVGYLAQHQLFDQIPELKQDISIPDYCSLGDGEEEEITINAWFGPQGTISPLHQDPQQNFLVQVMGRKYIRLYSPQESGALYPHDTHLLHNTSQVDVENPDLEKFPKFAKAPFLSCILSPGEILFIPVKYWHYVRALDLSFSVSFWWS
T1 sequence (Q9NWT6 whole entry): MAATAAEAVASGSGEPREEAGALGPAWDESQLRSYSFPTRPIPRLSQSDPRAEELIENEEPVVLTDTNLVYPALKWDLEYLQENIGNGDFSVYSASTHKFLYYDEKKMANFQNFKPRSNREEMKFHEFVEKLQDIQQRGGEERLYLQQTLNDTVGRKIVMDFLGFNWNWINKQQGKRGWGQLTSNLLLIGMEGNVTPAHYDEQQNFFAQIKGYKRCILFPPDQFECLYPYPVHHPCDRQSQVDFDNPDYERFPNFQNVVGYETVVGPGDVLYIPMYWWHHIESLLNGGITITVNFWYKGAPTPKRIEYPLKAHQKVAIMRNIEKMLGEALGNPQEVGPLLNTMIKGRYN

Row | Compound | melting point | IC50 (FIH) [µM] | IC50 (PHD2) [µM] | IC50 (AspH) [µM] | IC50 (JMJD5; read-out: JMJD5 IC50) [µM] | IC50 (KDM4A) [µM] | other results
1 | O=C(O)Cc1cs/c(=N\C(=O)CS(=O)(=O)c2ccccc2)n1O (hydrate or solvate) [compound 4] | 179 to 181 °C | – | – | – | – | – | –
2 | O=C(O)Cc1cs/c(=N\C(=O)CNS(=O)(=O)c2ccccc2)n1O [compound 19] | 178 to 180 °C | 3.7 ± 1.5 | 15.5 ± 4.6 | 3.1 ± 0.4 | 12 ± 0.6 | 17.4 ± 0.2 | loss in FIH inhibition relative to 20 (FIH; [1]): ~4 fold
3 | CC1(C(=O)/N=c2\scc(CC(=O)O)n2O)CN(S(=O)(=O)c2ccccc2)C1 [compound 25] | 156 to 158 °C | 1.2 ± 0.2 | 33.5 ± 1 | > 100 | 32.6 ± 6.7 | > 100 | –
4 | O=C(O)Cc1cs/c(=N\C(=O)C2CN(S(=O)(=O)c3ccccc3)C2)n1O [compound 24] | 170 to 173 °C | 0.45 ± 0.17 | 5.2 ± 0.7 | 60.9 ± 24.1 | 29.1 ± 4.4 | > 100 | selectivity for FIH inhibition over PHD2 inhibition (FIH; as judged by IC50 values): 12 fold
5 | O=C(O)Cc1csc(=NC(=O)C2CCN(S(=O)(=O)c3cccs3)C2)n1O (stereo not drawn) (hydrate or solvate) [compound 41] | 178 to 180 °C | – | – | – | – | – | –
6 | O=C(O)Cc1csc(=NC(=O)C2CCN(S(=O)(=O)c3ccc(Cl)cc3)C2)n1O (stereo not drawn) (hydrate or solvate) [compound 35] | 195 to 197 °C | – | – | – | – | – | –
7 | O=C(O)Cc1csc(=NC(=O)C2CCN(S(=O)(=O)c3cccc(Cl)c3)C2)n1O (stereo not drawn) (hydrate or solvate) [compound 34] | 178 to 182 °C | – | – | – | – | – | –
8 | CC(C(=O)O)c1cs/c(=N\C(=O)CS(=O)(=O)c2ccccc2)n1O (stereo not drawn) (hydrate or solvate) [compound 6] | 204 to 207 °C | – | – | – | – | – | –
9 | O=C(O)Cc1cs/c(=N\C(=O)CCNS(=O)(=O)c2ccccc2)n1O (hydrate or solvate) [compound 20] | 178 to 180 °C | – | – | – | – | – | –
10 | O=C(O)Cc1csc(=NC(=O)C2CCN(S(=O)(=O)c3ccccc3)C2)n1O (stereo not drawn) [compound 26] | 185 to 187 °C | 0.5 ± 0.02 | 12.4 ± 0.8 | 37.8 ± 11.3 | 12.5 ± 1 | > 100 | selectivity for FIH with respect to PHD2, JMJD5, AspH and KDM4A inhibition (FIH): > 25 fold; increase of FIH inhibition potency relative to 20 (FIH; [1]): ~2 fold; selectivity for FIH inhibition over AspH inhibition (FIH; as judged by IC50 values): ~75 fold; selectivity for FIH inhibition over JMJD5 inhibition (FIH; as judged by IC50 values): ~25 fold; selectivity for FIH inhibition over PHD2 inhibition (FIH; as judged by IC50 values): ~25 fold
11 | O=C(O)Cc1cs/c(=N\C(=O)CCNC(=O)c2ccccc2)n1O [compound 17] | 180 to 183 °C | 4.6 ± 0.7 | 3.6 ± 0.4 | 28.3 ± 6.5 | – | > 100 | loss in FIH inhibition relative to 20 (FIH; [1]): ~5 fold; IC50 (JMJD5): 4.6 ± 1.7 µM
12 | O=C(O)Cc1cs/c(=N\C(=O)CCS(=O)(=O)c2ccccc2)n1O (hydrate or solvate) [compound 15] | 182 to 184 °C | – | – | – | – | – | –
13 | Cc1s/c(=N\C(=O)CS(=O)(=O)c2ccccc2)n(O)c1CC(=O)O (hydrate or solvate) [compound 7] | 181 to 182 °C | – | – | – | – | – | –
14 | CC1(C(=O)/N=c2\scc(CC(=O)O)n2O)CCN(S(=O)(=O)c2ccccc2)C1 (stereo not drawn) (hydrate or solvate) [compound 29] | 158 to 161 °C | – | – | – | – | – | –
15 | O=C(O)Cc1csc(=NC(=O)C2CCN(S(=O)(=O)C3CCCC3)C2)n1O (stereo not drawn) [compound 43] | 177 to 180 °C | 0.81 ± 0.18 | 9.9 ± 0.5 | 35.5 ± 3.2 | 17.4 ± 6 | > 100 | –
16 | O=C(O)Cc1cs/c(=N\C(=O)C2CCCN2S(=O)(=O)c2ccccc2)n1O (stereo not drawn) (hydrate or solvate) [compound 28] | > 190 °C (dec.) | – | – | – | – | – | –
